The values that follow come from patent US8722849B2, “Polypeptides” (Novo Nordisk A/S, priority 2011, dated 2014).

Data set [1] has as its target T1, human calcitonin receptor (Homo sapiens, UniProt P30988).
T1 construct: expressed in transfected cells; host or cells: BHK570
T1 sequence (P30988 25-474): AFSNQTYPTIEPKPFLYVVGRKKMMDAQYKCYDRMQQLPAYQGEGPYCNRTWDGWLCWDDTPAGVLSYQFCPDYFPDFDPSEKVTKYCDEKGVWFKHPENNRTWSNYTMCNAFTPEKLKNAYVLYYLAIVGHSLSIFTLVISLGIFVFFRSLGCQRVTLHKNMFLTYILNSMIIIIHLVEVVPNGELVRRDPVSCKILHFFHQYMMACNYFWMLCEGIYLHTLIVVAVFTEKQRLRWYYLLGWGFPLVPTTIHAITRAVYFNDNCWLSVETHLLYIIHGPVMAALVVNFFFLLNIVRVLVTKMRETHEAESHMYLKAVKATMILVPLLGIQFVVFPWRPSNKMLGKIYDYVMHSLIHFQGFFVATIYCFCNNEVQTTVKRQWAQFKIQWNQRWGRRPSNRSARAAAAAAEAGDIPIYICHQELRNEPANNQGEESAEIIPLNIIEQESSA
In words: Assay (II)a functional CRE-luciferase assay, human calcitonin receptor. In kind it is cell-based. To be noted: Table 7; human calcitonin (CTa) receptor.

In data set [2] the target is T2, human amylin receptor (amylin 3(a) receptor: human calcitonin receptor + RAMP-3) (Homo sapiens, UniProt O60896+P30988).
T2 construct: expressed in transfected cells; host or cells: BHK570
T2 sequence (P30988 25-474): T1 sequence (P30988 25-474)
T2 sequence (O60896 24-148 partner): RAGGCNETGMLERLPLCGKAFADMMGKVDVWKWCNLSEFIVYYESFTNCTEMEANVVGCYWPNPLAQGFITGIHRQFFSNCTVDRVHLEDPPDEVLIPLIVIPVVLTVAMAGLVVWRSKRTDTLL
In words: Assay (II)a functional CRE-luciferase assay, human amylin receptor. To be noted: Table 2; BHK amylin 3(a)-receptor/CRE-luc cells. Type of data set: cell-based.

Data set [3] is described as follows: Assay (III) ThT fibrillation assay for physical stability. Type of data set: physicochemical. An outline of the steps: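 Freshly prepared formulations, pH-adjusted, with 1 μM ThT; four or eight replicates incubated at 37 °C under 960 rpm orbital shaking. Fluorescence (ex 444/em 485 nm) read every 20 min; […]. Peptide concentration measured by RP-HPLC before and after the run.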

A short description of data set [4]: Assay (IV) determination of solubility. Type of data set: physicochemical. In a few lines:
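Polypeptide in water (~500 nmol/ml stock) was mixed 1:1 with 100 mM buffers from pH 3.0 to 8.0 (glycylglycine pH 3.0–5.0; bistrispropane pH 6.0–8.0). After 18 hours at room temperature, samples were centrifuged and the polypeptide remaining in solution was quantified by HPLC.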

[5] abbreviates: bistrispropane buffer, pH 6, pH 6.0, read-out: Solubility pH 6.0.
The mark [6] stands for this setting: bistrispropane buffer, pH 6.5, pH 6.5, read-out: Solubility pH 6.5.
[7] abbreviates: bistrispropane buffer, pH 7, pH 7.0, 18 hours at room temperature, Table 3, read-out: Solubility pH 7.0.
Where [8] appears, read: bistrispropane buffer, pH 7, pH 7.0, read-out: Solubility pH 7.0.
Where [9] appears, read: bistrispropane buffer, pH 7.5, pH 7.5, read-out: Solubility pH 7.5.
[10] abbreviates: bistrispropane buffer, pH 8, pH 8.0, read-out: Solubility pH 8.0.
Where [11] appears, read: glycylglycine buffer, pH 3, pH 3.0, read-out: Solubility pH 3.0.
The mark [12] stands for this setting: glycylglycine buffer, pH 4, pH 4.0, 18 hours at room temperature, Table 2, read-out: Solubility pH 4.0.
Where [13] appears, read: glycylglycine buffer, pH 4, pH 4.0, read-out: Solubility pH 4.0.
Where [14] appears, read: glycylglycine buffer, pH 5, pH 5.0, read-out: Solubility pH 5.0.
Setting [15] is: bistrispropane buffer, pH 7, pH 7.0, Table 8, read-out: Solubility pH 7.0.
Setting [16] is: bistrispropane buffer, pH 7, pH 7.0, Table 9, read-out: Solubility pH 7.0.
Where [17] appears, read: bistrispropane buffer, pH 7.5, pH 7.5, Table 9, read-out: Solubility pH 7.5.

SMILES strings stand for the structures. In brackets after ≈: the same amount, converted by molar mass. Where two headings read alike, the source gives them in different places. Starred links: 1 amine or outer side, 2 acyl side, 3 side chain; linkers in the order of their positions; H or OH if unused. Positions of bridges follow the written chain, without caps; N, C: chain ends. Residues, ends and D or L forms follow the SMILES beside them. *: point of attachment. C20 diacid = O=C(O)CCCCCCCCCCCCCCCCCCC(=O)*; γGlu = O=C(O)[C@H](CCC(=O)[*:2])N[*:1] Bounds are passed on as bounds.

As usually defined, the EC50 is the concentration needed to bring the measured effect to its halfway point. In general, solubility refers to the dissolved amount per volume that the medium holds. As to `CC[C@H](C)[C@H](NC(=O)[C@@H]1CCCN1C(=O)CNC(=O)[C@H](Cc1ccccc1)NC(=O)[C@H](CC(N)=O)NC(=O)[C@H](CC(N)=O)NC(=O)[C@H](CO)NC(=O)[C@H](CO)NC(=O)[C@H](CCCNC(=N)N)NC(=O)[C@@H](NC(=O)[C@H](CC(C)C)NC(=O)[C@H](Cc1ccccc1)NC(=O)[C@H](CCC(=O)O)NC(=O)[C@H](C)NC(=O)[C@H](CC(C)C)NC(=O)[C@H](CCCNC(=N)N)NC(=O)[C@H](CCC(N)=O)NC(=O)[C@@H](NC(=O)[C@H](C)NC(=O)[C@@H]1CSSC[C@H](NC(=O)[C@H](Cc2c[nH]cn2)NC(=O)CC[C@H](NC(=O)CCCCCCCCCCCCCCCCCCC(=O)O)C(=O)O)C(=O)N[C@@H](CC(N)=O)C(=O)N[C@@H]([C@@H](C)O)C(=O)N[C@@H](C)C(=O)N[C@@H]([C@@H](C)O)C(=O)N1)[C@@H](C)O)C(C)C)C(=O)N[C@@H](CC(C)C)C(=O)N1CCC[C@H]1C(=O)N1CCC[C@H]1C(=O)N[C@H](C(=O)N[C@@H](CC(N)=O)C(=O)N[C@H](C(=O)NCC(=O)N[C@@H](CO)C(=O)N[C@@H](CC(N)=O)C(=O)N[C@H](C(=O)N1CCC[C@H]1C(N)=O)[C@@H](C)O)C(C)C)[C@@H](C)O` [Example 143, N-alpha-[(S)-4-Carboxy-4-(19-carboxynonadecanoylamino)butyryl]-[His1,Glu14,Arg18,Pro37]-pramlintide] ({C20 diacid-γGlu}-HCNTATCATQRLAEFLVRSSNNFGPILPPTNVGSNTP-NH2; disulfide 2-7 (inferred)), the EC50 in data set [1] amounted to 0.022 nM; in data set [2], 0.0415 nM. In addition, the “ThT pH 4.0 lag time (h)” value in data set [3] (ThT fibrillation assay) is 6 h. Besides, the solubility at 18 h was 75 µM (≈ 329 µg/mL) in data set [4] (setting [5]); 122 µM (≈ 534 µg/mL) in data set [4] (setting [6]); 165 µM (≈ 723 µg/mL) in data set [4] (setting [7]); 165 µM (≈ 723 µg/mL) in data set [4] (setting [8]); more than 200 µM in data set [4] (setting [9]); more than 200 µM in data set [4] (setting [10]). The solubility at 18 h in data set [4] (setting [11]), in data set [4] (setting [12]), in data set [4] (setting [13]) and in data set [4] (setting [14]) was more than 200 µM in each case.
As for `CC[C@H](C)[C@H](NC(=O)[C@@H]1CCCN1C(=O)CNC(=O)[C@H](Cc1ccccc1)NC(=O)[C@H](CC(N)=O)NC(=O)[C@H](CC(N)=O)NC(=O)[C@H](CO)NC(=O)[C@H](CO)NC(=O)[C@H](Cc1c[nH]cn1)NC(=O)[C@H](Cc1c[nH]cn1)NC(=O)[C@H](CC(C)C)NC(=O)[C@H](Cc1ccccc1)NC(=O)[C@H](CCC(=O)O)NC(=O)[C@H](C)NC(=O)[C@H](CC(C)C)NC(=O)[C@H](CCCCN)NC(=O)[C@H](CCC(N)=O)NC(=O)[C@@H](NC(=O)[C@H](C)NC(=O)[C@@H]1CSSC[C@H](NC(=O)[C@H](CCCCN)NC(=O)CC[C@H](NC(=O)CCCCCCCCCCCCCCCCCCC(=O)O)C(=O)O)C(=O)N[C@@H](CC(N)=O)C(=O)N[C@@H]([C@@H](C)O)C(=O)N[C@@H](C)C(=O)N[C@@H]([C@@H](C)O)C(=O)N1)[C@@H](C)O)C(=O)N[C@@H](CC(C)C)C(=O)N1CCC[C@H]1C(=O)N1CCC[C@H]1C(=O)N[C@H](C(=O)N[C@@H](CC(N)=O)C(=O)N[C@H](C(=O)NCC(=O)N[C@@H](CO)C(=O)N[C@@H](CC(N)=O)C(=O)N[C@H](C(=O)N1CCC[C@H]1C(N)=O)[C@@H](C)O)C(C)C)[C@@H](C)O` [Example 145, N-alpha-[(S)-4-Carboxy-4-(19-carboxynonadecanoylamino)butyryl]-[Lys11,Glu14,His17,Pro37]-pramlintide] ({C20 diacid-γGlu}-KCNTATCATQKLAEFLHHSSNNFGPILPPTNVGSNTP-NH2; disulfide 2-7 (inferred)), the EC50 was 0.083 nM in data set [1] and 0.0805 nM in data set [2]. Also, the “ThT pH 4.0 lag time” value in data set [3] (Table 8), in data set [3] (Table 9) and in data set [3] (ThT fibrillation assay) was more than 45 h in each case. The “ThT pH 4.0 lag time (h)” value in data set [3] (ThT fibrillation assay) is given as more than 45 h. Further, the solubility at 18 h in data set [4] (setting [5]) was 178 µM (≈ 776 µg/mL); in data set [4] (setting [6]), more than 200 µM; in data set [4] (setting [7]), more than 200 µM; in data set [4] (setting [15]) it was more than 200 µM; in data set [4] (setting [16]), more than 200 µM; in data set [4] (setting [8]), more than 200 µM. Also, the solubility at 18 h in data set [4] (setting [17]), in data set [4] (setting [9]), in data set [4] (setting [10]), in data set [4] (setting [11]), in data set [4] (setting [12]) and in data set [4] (setting [13]) was more than 200 µM throughout. Further, the solubility at 18 h in data set [4] (setting [14]) was more than 200 µM.
On to `CC[C@H](C)[C@H](NC(=O)[C@@H]1CCCN1C(=O)CNC(=O)[C@H](Cc1ccccc1)NC(=O)[C@H](CC(N)=O)NC(=O)[C@@H](NC(=O)[C@H](CO)NC(=O)[C@H](CO)NC(=O)[C@H](Cc1c[nH]cn1)NC(=O)[C@H](Cc1c[nH]cn1)NC(=O)[C@H](CC(C)C)NC(=O)[C@H](Cc1ccccc1)NC(=O)[C@H](CCC(=O)O)NC(=O)[C@H](C)NC(=O)[C@H](CC(C)C)NC(=O)[C@H](CCCNC(=N)N)NC(=O)[C@H](CCC(N)=O)NC(=O)[C@@H](NC(=O)[C@H](C)NC(=O)[C@@H]1CSSC[C@H](NC(=O)[C@H](CCCCN)NC(=O)CC[C@H](NC(=O)CCCCCCCCCCCCCCCCCCC(=O)O)C(=O)O)C(=O)N[C@@H](CC(N)=O)C(=O)N[C@@H]([C@@H](C)O)C(=O)N[C@@H](C)C(=O)N[C@@H]([C@@H](C)O)C(=O)N1)[C@@H](C)O)[C@@H](C)O)C(=O)N[C@@H](CC(C)C)C(=O)N1CCC[C@H]1C(=O)N1CCC[C@H]1C(=O)N[C@H](C(=O)N[C@@H](CC(N)=O)C(=O)N[C@H](C(=O)NCC(=O)N[C@@H](CO)C(=O)N[C@@H](CC(N)=O)C(=O)N[C@H](C(=O)N1CCC[C@H]1C(N)=O)[C@@H](C)O)C(C)C)[C@@H](C)O` [Example 146, N-alpha-[(S)-4-Carboxy-4-(19-carboxynonadecanoylamino)butyryl]-[Glu14,His17,Thr21,Pro37]-pramlintide] ({C20 diacid-γGlu}-KCNTATCATQRLAEFLHHSSTNFGPILPPTNVGSNTP-NH2; disulfide 2-7 (inferred)), for which the EC50 in data set [1] was found to be 0.0595 nM; in data set [2], 0.091 nM. The “ThT pH 4.0 lag time” value in data set [3] (Table 8), in data set [3] (Table 9) and in data set [3] (ThT fibrillation assay) was more than 45 h in each case. Further, the “ThT pH 4.0 lag time (h)” value in data set [3] (ThT fibrillation assay) is listed as more than 45 h. The solubility at 18 h in data set [4] (setting [5]), in data set [4] (setting [6]), in data set [4] (setting [7]), in data set [4] (setting [15]), in data set [4] (setting [16]) and in data set [4] (setting [8]) was more than 200 µM each time. In addition, the solubility at 18 h in data set [4] (setting [17]), in data set [4] (setting [9]), in data set [4] (setting [10]), in data set [4] (setting [11]), in data set [4] (setting [12]) and in data set [4] (setting [13]) was more than 200 µM in each case. In data set [4] (setting [14]), the solubility at 18 h was more than 200 µM.
